From patent US4791200A, “2-substituted-4-aryl-substituted thiazoles” (Ortho Pharmaceutical Corporation, priority 1987, dated 1988) come the findings set out here.

The term IC50 denotes the concentration that gives 50% inhibition.

Molecules are shown by their SMILES. Like-named read-outs stand apart in the source and are kept apart here.

One assay has as its system parietal cells. As to the kind of experiment: Isolated Parietal Cell Assay (14C-aminopyrine accumulation, histamine or dibutyryl cAMP stimulated). The assay is classed as cell-based, rabbit. The settings on record: Oryctolagus cuniculus. The procedure:
The isolated parietal cell assay was conducted using the procedures of Batzri, S. et al., Biochemica et Biophysica Acta 508, 328 (1978) and Soll, A. H. Am. J. Physiol. 238, G366 (1980). Basically, parietal cells were isolated from the fundic mucosa of rabbit stomachs by a four-stage collagenase digestion process. The supernatant fractions from the last two stages of this process contain the individual parietal cells. This cell suspension was centrifuged and reconstituted in a modified Hank's buffer to contain 1-2×10^6 cells/ml. […] This accumulation was stimulated by histamine and was blocked by H2 antagonists. The cells were incubated with 0.4-0.5×10^6 cpm ^14 C-AP, with various concentrations of histamine as a stimulant, 1×10^-5 M isobutylmethylxanthine, and the test compound added in a 20 μl volume of buffer or DMSO. The flasks were incubated in a shaking water bath at 37° C. for 20 minutes. Two aliquots were then taken from each flask and cell pellets were collected by centrifugation. The pellets were solubilized with Protosol (New England Nuclear) and radioactivity determined by liquid scintillation spectrometry. Data is presented as the IC50 vhist, the concentration of compound required to inhibit ^14 C-AP accumulation in the histamine stimulated parietal cell by 50%.
When dibutyryl cAMP was used to stimulate the cells instead of histamine, a similar inhibition of ^14 C-AP accumulation was measured and the data are presented as the IC50 vcAMP, the concentration required to inhibit ^14 C-AP accumulation in the cAMP stimulated parietal cell by 50%.

Assay [1] concerns acid output (gastric secretion). The experiment in a line: Gastric Secretion (pylorus ligation, modified Shay). The class given is in vivo, male Charles River Sprague Dawley derived rats. The settings on record: i.d. or s.c., 4 hours after ligation; for response vs control in vivo at 40 mg/kg: at 40 mpK. The procedure: The inhibitory activity of the compounds on acid output was tested using pylorus ligation in a modification of the procedure of Shay, H. et al., Gastroenterology 26, 906 (1954). Basically, male Charles River Sprague Dawley derived rats weighing 150-300 grams were deprived of food but not water for 18-24 hours prior to use. Water was withheld during the experiment, however. The rats were weighed, anesthetized with ether and the pylorus ligated according to the method of Shay et al., supra. Treatment or vehicle control was then administered intraduodenally (i.d.) or subcutaneously (s.c.). Rats were housed two/cage and sacrificed with CO2 four hours after ligation. The stomachs were removed, rinsed, and contents emptied into a graduated centrifuge tube. The tubes were centrifuged, the volume of gastric juice recorded, and any samples obviously contaminated by feces, food or blood were eliminated. A 1 ml aliquot of gastric juice was titrated with 0.1N NaOH to a pH of 7.0-7.4. The volume of gastric juice secreted, the acid concentration, and the product of the volume times the concentration, i.e., the total amount of acid secreted, were measured.

The target in assay [2] is T1, parietal cell H^+ K^+ ATPase (Oryctolagus cuniculus, UniProt P27112).
T1 construct: determined in fundic mucosa from New Zealand white rabbits which were homogenized; from tissue; host or cells: fundic mucosa of New Zealand white rabbits, homogenized; membrane protein
T1 sequence (P27112 2-1035 limits assumed): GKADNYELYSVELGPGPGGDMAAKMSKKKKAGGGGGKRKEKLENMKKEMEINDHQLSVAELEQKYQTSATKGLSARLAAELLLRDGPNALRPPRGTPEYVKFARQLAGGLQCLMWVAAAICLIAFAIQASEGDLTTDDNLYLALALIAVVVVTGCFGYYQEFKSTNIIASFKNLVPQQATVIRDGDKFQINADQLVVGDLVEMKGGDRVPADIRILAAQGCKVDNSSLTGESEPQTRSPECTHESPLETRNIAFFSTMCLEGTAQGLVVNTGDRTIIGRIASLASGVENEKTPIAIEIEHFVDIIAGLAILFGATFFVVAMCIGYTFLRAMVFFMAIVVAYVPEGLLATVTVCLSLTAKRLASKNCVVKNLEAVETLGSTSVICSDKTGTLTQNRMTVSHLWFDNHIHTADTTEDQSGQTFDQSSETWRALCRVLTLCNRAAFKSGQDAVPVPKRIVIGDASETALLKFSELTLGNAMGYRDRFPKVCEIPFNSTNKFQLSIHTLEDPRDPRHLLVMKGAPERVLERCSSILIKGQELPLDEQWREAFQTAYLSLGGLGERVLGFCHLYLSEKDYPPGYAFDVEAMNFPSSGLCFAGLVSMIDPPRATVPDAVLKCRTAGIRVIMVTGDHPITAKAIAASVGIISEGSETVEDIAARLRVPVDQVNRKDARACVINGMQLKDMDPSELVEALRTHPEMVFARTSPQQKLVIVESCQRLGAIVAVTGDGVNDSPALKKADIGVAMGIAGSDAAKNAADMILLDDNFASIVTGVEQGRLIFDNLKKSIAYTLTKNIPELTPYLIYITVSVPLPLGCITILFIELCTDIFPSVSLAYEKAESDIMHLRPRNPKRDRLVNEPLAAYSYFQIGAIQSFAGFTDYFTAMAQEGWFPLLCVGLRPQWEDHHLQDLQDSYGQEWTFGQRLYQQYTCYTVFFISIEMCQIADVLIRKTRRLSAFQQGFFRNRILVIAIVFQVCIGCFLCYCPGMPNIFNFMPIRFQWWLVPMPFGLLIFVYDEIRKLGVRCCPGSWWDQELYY
T1 sequence (P18597 whole entry partner): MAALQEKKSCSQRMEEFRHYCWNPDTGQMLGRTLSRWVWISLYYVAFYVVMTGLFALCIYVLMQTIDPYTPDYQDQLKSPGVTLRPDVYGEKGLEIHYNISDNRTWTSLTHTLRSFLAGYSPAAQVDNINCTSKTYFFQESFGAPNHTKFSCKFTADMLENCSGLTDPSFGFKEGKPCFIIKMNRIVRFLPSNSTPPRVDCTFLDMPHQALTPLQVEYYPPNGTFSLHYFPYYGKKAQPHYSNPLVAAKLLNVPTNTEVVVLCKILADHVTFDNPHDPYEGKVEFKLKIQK
As to the kind of experiment: Inhibition of Parietal Cell H^+ K^+ ATPase. The settings on record: read-out: % Inhibition at Concentration; for inhibition at 100 µM: at 10^-4 M. The assay is classed as biochemical, New Zealand white rabbits. The procedure: The activity was measured in a 1 ml incubation volume containing 50 mM Tris pH 7.4, 2 mM MgCl2, 2 mM Na2 ATP, with or without 20 mM KCl and vehicle control (dimethylsulfoxide) or test compound added in a 0.02 ml volume. Typically, 20-50 μg membrane protein was added and the tubes were preincubated with test compound for 10 minutes at 37° C. Substrate, Na2 ATP, was then added and the tubes were incubated for another 15 minutes at 37° C. The reaction was stopped by the addition of 1 ml 14% trichloroacetic acid and the samples were centrifuged at 2,000 ×g for 10 minutes. The amount of inorganic phosphate present in an aliquot of supernatant was determined. H^+ K^+ ATPase activity was determined after correcting for the basal (Mg^++ only) enzyme activity present in the membrane preparation.

[3] abbreviates: 20 min, histamine stimulated, 37° C., 20 minutes, read-out: IC50 vhist (inhibition of 14C-AP accumulation in the histamine stimulated parietal cell).
Setting [4] is: dibutyryl cAMP stimulated, read-out: IC50 vcAMP (inhibition of 14C-AP accumulation in the cAMP stimulated parietal cell).
Where [5] appears, read: Rattus norvegicus, read-out: % Acid Secreted at mpK.

Regarding `CCCCN(CCCC)CCCOc1ccc(-c2csc(-c3ccccc3)n2)cc1` [Example 1, 4-(4-Dibutylaminopropoxyphenyl)-2-phenylthiazole], the IC50 in the assay on parietal cells (setting [3]) was determined as 450 nM; with parietal cells (setting [4]), 420 nM. In assay [1] (Rattus norvegicus, at 17.0 mpK, read-out: % Acid Secreted at mpK), the response vs control in vivo at 17 mg/kg was 50%. Further, in assay [1] (setting [5]), the response vs control in vivo at 40 mg/kg was found to be 97%. Moreover, the “% Acid Secreted at mpK” value in assay [1] (at 20 mpK) is reported as 75%. Moreover, the inhibition at 100 µM in assay [2] came to 47%.
For the compound `CCCCN(CCCC)CCCOc1ccc(-c2csc(C)n2)cc1` [Example 2, 4-(4-Dibutylaminopropoxyphenyl)-2-methylthiazole], the IC50 in the assay with parietal cells (setting [3]) came out at 1500 nM; in the assay with parietal cells (setting [4]), 8400 nM. For the same compound, in assay [1] (at 20 mpK), the “% Acid Secreted at mpK” value is 8%. Also, in assay [2], the inhibition at 100 µM turned out to be 22%.
On to `CCCCN(CCCC)CCCOc1ccc(-c2nc(-c3ccccc3)sc2C)cc1` [Example 3, 4-(4-Dibutylaminopropoxyphenyl)-5-methyl-2-phenylthiazole], for which the values for the IC50 in the assay with parietal cells (setting [3]) and in the assay with parietal cells (setting [4]) were 270 nM and 230 nM, respectively. Besides, the “% Acid Secreted at mpK” value in assay [1] (at 20 mpK) is reported as 36%. Besides, in assay [2], the inhibition at 100 µM worked out at 65%.
On to `CCN(CC)CCCOc1ccc(-c2csc(-c3ccccc3)n2)cc1` [Example 4, 4-(4-Diethylaminopropoxyphenyl)-2-phenylthiazole], for which the values for the IC50 in the assay on parietal cells (setting [3]) and with parietal cells (setting [4]) were 120 nM and 90 nM, respectively. The response vs control in vivo at 40 mg/kg in assay [1] (setting [5]) stood at 82%. Moreover, the inhibition at 47 µM in assay [2] (at 47 μM) is 50%.
With `CCCN(CCC)CCCOc1ccc(-c2csc(-c3ccccc3)n2)cc1` [Example 5, 4-(4-Dipropylaminopropoxyphenyl)-2-phenylthiazole], the IC50 worked out at 230 nM in the assay with parietal cells (setting [3]) and 180 nM in the assay on parietal cells (setting [4]). For the same compound, the response vs control in vivo at 40 mg/kg in assay [1] (setting [5]) was 94%. Also, in assay [2], the inhibition at 100 µM is 60%.
As for `CN1CCN(CCCOc2ccc(-c3csc(-c4ccccc4)n3)cc2)CC1` [Example 6, 4-[4-(4-Methylpiperazol-1-yl)propoxyphenyl]-2-phenylthiazole], the values for the IC50 with parietal cells (setting [3]) and with parietal cells (setting [4]) were 180 nM and 120 nM, respectively. Also, in assay [1] (setting [5]), the response vs control in vivo at 40 mg/kg amounted to 18%. Besides, the inhibition at 44 µM in assay [2] (at 44 μM) stood at 50%.
As to `COc1ccccc1N1CCN(CCCOc2ccc(-c3csc(-c4ccccc4)n3)cc2)CC1` [Example 7, 4-[4-[4-(2-Methoxyphenyl)piperazol-1-yl]propoxyphenyl]-2-phenylthiazole], the IC50 in the assay with parietal cells (setting [3]) was determined as 480 nM; in the assay with parietal cells (setting [4]) it was 340 nM. Further, in assay [2], the inhibition at 100 µM is 28%.
`c1ccc(-c2nc(-c3ccc(OCCCN4CCCCC4)cc3)cs2)cc1` [Example 8, 4-[4-(3-Piperidino)propoxyphenyl]-2-phenylthiazole]: the IC50 with parietal cells (setting [3]) is 110 nM; in the assay with parietal cells (setting [4]), 50 nM. Besides, in assay [1] (setting [5]), the response vs control in vivo at 40 mg/kg was 92%. Besides, the results for the “% Acid Secreted at mpK” value in assay [1] (at 10 mpK) and in assay [1] (at 20 mpK) were 25% and 46%, respectively. The inhibition at 34 µM in assay [2] (at 34 μM) was found to be 50%.
In the case of `c1ccc(-c2nc(-c3ccc(OCCCN4CCCC4)cc3)cs2)cc1` [Example 9, 4-[4-(3-Pyrrolidino)propoxyphenyl]-2-phenylthiazole], the values for the IC50 with parietal cells (setting [3]) and in the assay on parietal cells (setting [4]) were 390 nM and less than 10000 nM, respectively. In assay [1] (at 20 mpK), the “% Acid Secreted at mpK” value was 36%. Moreover, the inhibition at 32 µM in assay [2] (at 32 μM) turned out to be 50%.
With `c1ccc(-c2nc(-c3ccc(OCCCn4ccnc4)cc3)cs2)cc1` [Example 10, 4-[4-(1H-Imidazol-1-yl)propoxyphenyl]-2-phenylthiazole], the IC50 is 80 nM in the assay with parietal cells (setting [3]) and 20 nM with parietal cells (setting [4]). In addition, the response vs control in vivo at 5 mg/kg in assay [1] (Rattus norvegicus, at 5 mpK, read-out: % Acid Secreted at mpK) worked out at 33%. Besides, the response vs control in vivo at 5.7 mg/kg in assay [1] (Rattus norvegicus, at 5.7 mpK, read-out: % Acid Secreted at mpK) was determined as 50%. Further, the entries for the “% Acid Secreted at mpK” value in assay [1] (at 10 mpK) and in assay [1] (at 20 mpK) were 78% and 91%, respectively. Also, the inhibition at 18 µM in assay [2] (at 18 μM) was determined as 50%.
For the compound `CN(CCCOc1ccc(-c2csc(-c3ccccc3)n2)cc1)Cc1ccccc1` [Example 11, 4-(4-Benzylmethylaminopropoxyphenyl)-2-phenylthiazole], the IC50 in the assay with parietal cells (setting [3]) came out at 370 nM; in the assay with parietal cells (setting [4]), 210 nM. For the same compound, the “% Acid Secreted at mpK” value in assay [1] (at 20 mpK) was 48%. Further, in assay [2], the inhibition at 100 µM was determined as 39%.
In the case of `CCCCN(CCCC)CCOc1ccc(-c2csc(-c3ccccc3)n2)cc1` [Example 12, 4-(4-Dibutylaminoethoxyphenyl)-2-phenylthiazole], the IC50 in the assay on parietal cells (setting [3]) is 310 nM; in the assay with parietal cells (setting [4]), 350 nM. For the same compound, the “% Acid Secreted at mpK” value in assay [1] (at 20 mpK) is recorded as 41%. For the same compound, the inhibition at 100 µM in assay [2] was determined as 44%.
In the case of `CCCCN(CCCC)CCCCOc1ccc(-c2csc(-c3ccccc3)n2)cc1` [Example 13], the concentration for half-maximal inhibition (IC50) in the assay with parietal cells (setting [3]) is 130 nM; with parietal cells (setting [4]), 120 nM. The response vs control in vivo at 40 mg/kg in assay [1] (setting [5]) is 90%. In addition, in assay [1] (at 20 mpK), the “% Acid Secreted at mpK” value was found to be 56%. In addition, in assay [2], the inhibition at 100 µM came out at 64%.
Turning to `c1ccc(-c2nc(-c3ccc(OCCCCn4ccnc4)cc3)cs2)cc1` [Example 14], the figures for the IC50 with parietal cells (setting [3]) and in the assay on parietal cells (setting [4]) were 820 nM and 310 nM, respectively. The response vs control in vivo at 40 mg/kg in assay [1] (setting [5]) was determined as 31%. For the same compound, in assay [2], the inhibition at 100 µM came to 0%.
As for `CCCCN(CCCC)CCCCCOc1ccc(-c2csc(-c3ccccc3)n2)cc1` [Example 15], the IC50 in the assay on parietal cells (setting [3]) worked out at 490 nM; in the assay with parietal cells (setting [4]), 860 nM. In assay [1] (at 20 mpK), the “% Acid Secreted at mpK” value is on record as 54%. In assay [2], the inhibition at 100 µM came out at 58%.
With `CCCCN(CCCC)CCCOc1ccc(-c2csc(-c3ccc(Cl)cc3)n2)cc1` [Example 16], the IC50 came to 2100 nM in the assay on parietal cells (setting [3]) and 1800 nM in the assay with parietal cells (setting [4]). In addition, the “% Acid Secreted at mpK” value in assay [1] (at 20 mpK) is 40%. Further, the inhibition at 100 µM in assay [2] is 55%.
On to `CCCCN(CCCC)CCCOc1ccc(-c2csc(-c3ccc(OC)cc3)n2)cc1` [Example 17, 4-(4-Dibutylaminopropoxyphenyl)-2-(4-methoxyphenyl)thiazole], for which the IC50 in the assay on parietal cells (setting [3]) amounted to 480 nM; with parietal cells (setting [4]), 230 nM. In addition, the “% Acid Secreted at mpK” value in assay [1] (at 20 mpK) was determined as 4%. In addition, the inhibition at 100 µM in assay [2] stood at 33%.
For `CCCCN(CCCC)CCCOc1ccc(-c2csc(-c3cc(OC)cc(OC)c3)n2)cc1` [Example 18, 4-(4-Dibutylaminopropoxyphenyl)-2-(3,5-dimethoxyphenyl)thiazole], the values for the IC50 in the assay with parietal cells (setting [3]) and in the assay on parietal cells (setting [4]) were 260 nM and 540 nM, respectively. Also, the “% Acid Secreted at mpK” value in assay [1] (at 20 mpK) turned out to be 17%. Further, the inhibition at 100 µM in assay [2] is 30%.
Regarding `CCCCN(CCCC)CCCOc1ccc(-c2csc(-c3ccc(C)cc3)n2)cc1` [Example 19, 4-(4-Dibutylaminopropoxyphenyl)-2-(4-methylphenyl)thiazole], the results for the IC50 in the assay with parietal cells (setting [3]) and with parietal cells (setting [4]) were 1500 nM and 3000 nM, respectively. In assay [1] (at 20 mpK), the “% Acid Secreted at mpK” value came out at 41%. Further, in assay [2] (at 24 μM), the inhibition at 24 µM was determined as 50%.
